Data on two compounds can be found in patent US20060183773A1, “Uses of methylphenidate derivatives” (priority 2005, published 2006).

Common to all, as to assay type: cell-based, human
The subject of one assay is c-Jun. Kind of assay: c-Jun in VEGF-treated HUVECs, TransAM AP-1 assay. The conditions noted are these: for Mean OD 450 nm (c-Jun): control 0.204, VEGF only 0.261. On the procedure: The flasks were incubated overnight at 37° C., 5% CO2 After this incubation, vascular endothelial growth factor (VEGF) (obtained from Sigma) was added to give a final concentration 10 ng/ml, and the flasks were incubated for an additional 30 minutes.
The amount of c-Jun was determined using a TransAM™ AP-1 Family Transcription Factor Assay Kit and a Nuclear Extract Kit from Active Motif North America, Carlsbad, Calif., according to manufacturer's instructions. Briefly, a nuclear extract of the cells was prepared using the Nuclear Extract Kit. Then, the nuclear extract was added to the wells of a 96-well plate in which oligonucleotide containing a TPA-responsive element (TRE) was immobilized. Activator protein-1 (AP-1) dimers contained in the nuclear extract were bound to this oligonucleotide and were detected using an antibody specific for c-Jun. A secondary antibody conjugated to horseradish peroxidase (HRP) was next added to provide a colorimetric readout that was quantified by spectrophotometry (measurement at 450 nm).

The subject of the next assay is IL-8. The experiment in a line: IL-8 release by TNFα-stimulated HUVECs, ELISA. The conditions noted are these: for Mean IL-8: 18 hours, TNFα + water 35572; for IL-8 release stimulated by TNFα (in words): HUVECs, Cpd II 1-30 μg/ml, MP 15 μg/ml, Dex and LY 294002 10 μM. Here is the method:
Passage 4 HUVECs, human source lot number 8710 (obtained from ATCC), were put into the wells of a 24-well tissue culture plate at 5,000 cells/well in EGM-2 medium (obtained from Cambrex) and cultured for 72 hours at 37° C. and 5% CO2. […] After incubation for 1 hour at 37° C. and 5% CO2, TNFα (obtained from Pierce) was added to give a final concentration of 10 ng/ml, and the cells were incubated for an additional 18 hours at 37° C. and 5% CO2. After this incubation, the supernatants were collected, and the amount of IL-8 in the supernatants determined by ELISA as described in Example 4.
In general terms: In an ELISA, binding on a coated surface is turned into a signal by an enzyme label.

The test system of assay [1] is peripheral blood lymphocytes (PBL). The experiment in a line: PBL proliferation, Promega cell titer assay. The conditions noted are these: for proliferation of PBL (OD at 530 nm): Dex 10 μM; for proliferation of PBL stimulated with PHA (OD at 530 nm): donor GR283. Here is the method: Whole blood was drawn from GR283, a human volunteer with known allergies, into a glass vacutainer tube containing no anticoagulant. This blood was allowed to clot, and the serum was removed by centrifugation and then heat inactivated by placing it in a water bath at 56° C. for 30 minutes. Whole blood from GR283 was also drawn into a glass vacutainer tube containing heparin and used for peripheral blood lymphocytes (PBL) isolation as follows. Whole blood was layered over room temperature Histopaque 1077 solution and centrifuged at 2000 rpm for 15 minutes at room temperature. Cells at the plasma-Histopaque interface were then removed and washed with culture medium (IMDM medium with 10% heat-inactivated GR283 serum plus 1% penicillin/streptomycin) at 37° C.
Then, GR283's PBL in culture medium were added to the wells to give a final concentration of 150,000 cells per well, and the plates were incubated at 37° C., 5% CO2 for 24 hours. After this incubation, phytohemagglutinin (PHA) in culture medium was added to give final concentrations of 2 μg/ml, 5 μg/ml or 20 μg/ml, final total volume of 200 μl/well, and the cells were incubated for an additional 72 hours at 37° C., 5% CO2. All cultures were performed in triplicate.
Cell proliferation was assayed by adding 20 μl of Promega cell titer solution to each well and incubating the plate for an additional 4 hours. Promega cell titer solution is a solution containing a tetrazolium dye that is reduced by living cells to a formazan dye, and this reduction is proportional to the number of living cells present in the well. After the 4-hour incubation, the optical density (OD) at 530 nm of each well was measured. The OD at 530 nm for blank wells containing no cells was subtracted from the OD of the experimental wells.
Then, GR467's PBL in culture medium were added to the wells to give a final concentration of 150,000 cells per well, and the plates were incubated at 37° C., 5% CO2 for 24 hours. After this incubation, PHA was added to give a final concentration of 2 μg/ml, final total volume of 200 μl/well, and the cells were incubated for an additional 72 hours at 37° C., 5% CO2. All cultures were performed in triplicate.
Then, GR191's PBL in culture medium were added to the wells to give a final concentration of 150,000 cells per well, and the plates were incubated at 37° C., 5% CO2 for 24 hours. After this incubation, PHA was added to give final concentrations of 2 μg/ml and 5 μg/ml, final total volume of 200 μl/well, and the cells were incubated for an additional 72 hours at 37° C., 5% CO2. All cultures were performed in triplicate.

The next assay deals with IFNγ. The experiment in a line: IFNγ release by PBL, ELISA. The conditions noted are these: donor GR467, Cpd II 15 μg/ml, MP 15 μg/ml, Dex 10 μM, FIG. 4; for IFNγ release, cells stimulated with PHA: 2 μg/ml PHA, 96 h; for IFNγ release, unstimulated cells: no PHA. Here is the method:
After this incubation, PHA was added to give a final concentration of 2 μg/ml, and the cells were incubated for an additional 96 hours at 37° C., 5% CO2. All cultures were performed in triplicate. Cells were then removed by centrifugation at 1000 rpm for 10 minutes, and the culture medium collected.
Release of IL-13 and interferon gamma (IFNγ) into the culture medium was measured by ELISA. To perform the ELISA, matched pairs of antibodies against human IL-13 and IFNγ were purchased from Pierce Biotechnology and Biosource, respectively. ELISA strip well plates were coated with 10 μg/ml of antibody (in phosphate-buffered saline (PBS)) to IL-13 and 4 μg/ml of antibody to IFNγ (in PBS) overnight at room temperature. The plates were then blocked using a 4% BSA solution in PBS for one hour, followed by the addition of 50 μl of experimental culture medium per well in duplicate. The plates were incubated at room temperature for one hour and then washed using 50 mM Tris pH 8.0 with 0.1% Tween 20. Then, solutions of 400 ng/ml biotinylated second antibody to IL-13 and 500 ng/ml biotinylated second antibody to IFNγ were made in blocking buffer, and 100 μl were added per well. The plates were incubated for 1 hour and washed again. A 1:8000 dilution of Strepavidin HRP (Pierce Biotechnology) conjugate was made in blocking buffer, and 100 μl were added to the wells and incubation continued for 30 minutes. A final wash step was performed, after which 100 μl Pierce Biotechnology TMB substrate were added to each well. Color was developed for 30 minutes and stopped by adding 100 μl 0.18 N H2SO4. OD was determined using microplate reader with a 450 nm filter.

As to `COC(=O)C(c1ccc(-c2ccccc2)cc1)C1CCCCN1` (stereo not shown) [Cpd II], the “Mean OD 450 nm (c-Jun)” value in the assay on c-Jun (VEGF 10 ng/ml + 1 μg/ml) came to 0.221 ± 0.008; with c-Jun (VEGF 10 ng/ml + 5 μg/ml), 0.185 ± 0.025; with c-Jun (VEGF 10 ng/ml + 15 μg/ml), 0.204 ± 0.010. Further, the “amount of c-Jun (in words)” value in the assay with c-Jun (VEGF, 15 μg/ml and 5 μg/ml) is “completely eliminated the increase in the amount of c-Jun”. Moreover, the “Mean IL-8” value was determined as 53657 ± 3935.18 pg/mL with IL-8 (10 ng/ml TNFα + 1 μg/ml); 34482 ± 2127.22 pg/mL with IL-8 (10 ng/ml TNFα + 5 μg/ml); 22050 ± 727.27 pg/mL with IL-8 (10 ng/ml TNFα + 10 μg/ml); 20817 ± 674.63 pg/mL in the assay on IL-8 (10 ng/ml TNFα + 15 μg/ml); 4829.8 ± 214.13 pg/mL in the assay with IL-8 (10 ng/ml TNFα + 30 μg/ml). For the same compound, in the assay on IL-8, the “IL-8 release stimulated by TNFα (in words)” value was “decreased IL-8 release stimulated by TNFα in a dose-dependent manner”. The “proliferation of PBL (OD at 530 nm)” value in assay [1] (donor GR191, unstimulated and PHA 2, 5 μg/ml, Cpd II 5, 15, 25, 50 μg/ml, MP 50 μg/ml, FIGS. 5A-B) is “significantly inhibited the proliferation of PBL, both unstimulated and stimulated with PHA”; in assay [1] (donor GR467, unstimulated and 2 μg/ml PHA, Cpd II 5, 15, 25 μg/ml, MP 15 μg/ml, FIG. 2), “significantly inhibited the proliferation of PBL, both unstimulated and stimulated with PHA”. Also, the “proliferation of PBL stimulated with PHA (OD at 530 nm)” value in assay [1] (PHA 2, 5, 20 μg/ml, Cpd II 5, 15, 50 μg/ml, Dex 10 μg/ml, FIGS. 1A-C) is reported as “significantly inhibited the proliferation of PBL stimulated with PHA in a dose-dependent manner”. Further, in the assay on IFNγ, the “IFNγ release, cells stimulated with PHA” value is listed as “significantly inhibited IFNγ release”. Also, the “IFNγ release, unstimulated cells” value with IFNγ is given as “significantly inhibited IFNγ release”.
As for `COC(=O)C(c1ccccc1)C1CCCCN1` (stereo not shown) [methylphenidate], in the assay on c-Jun (VEGF 10 ng/ml + 15 μg/ml), the “Mean OD 450 nm (c-Jun)” value came to 0.230 ± 0.016. In the assay on IL-8 (10 ng/ml TNFα + 15 μg/ml), the “Mean IL-8” value was found to be 30183 ± 3448.01 pg/mL. Besides, the “IL-8 release stimulated by TNFα (in words)” value with IL-8 was “slightly decreased IL-8 release”. For the same compound, the “proliferation of PBL stimulated with PHA (OD at 530 nm)” value in assay [1] (methylphenidate at the other dose / PHA combinations) is “did not significantly reduce the proliferation of the PHA-stimulated PBL”; in assay [1] (methylphenidate highest dose (50 μg/ml), lowest PHA dose (2 μg/ml)), “showed a significant effect at its highest dose and the lowest PHA dose”. Further, the “IFNγ release, cells stimulated with PHA” value in the assay with IFNγ is “increased the release of IFNγ by the PHA-stimulated cells”. The “IFNγ release, unstimulated cells” value in the assay on IFNγ was “had some effect on the release of IFNγ by unstimulated cells”.
